US12226410B2, “Methods for enhancing cellular clearance of pathological molecules via activation of the cellular protein ykt6” (NORTHWESTERN UNIVERSITY, priority 2019, dated 2025)
“Also recorded” adds a separate entry of the source.

Assays:
ykt6 [1] = experiment: Ykt6 membrane shift analysis under lysosomal stress; type: cell-based, human
Procedure: (§1) FIGS. 3A, 3B, 3C, 3D, 3E, 3F, 3G, 3H, 3I, 3J, and 3K. Ykt6 is activated in response to lysosomal stress. 3A) Ykt6 membrane shift analysis in bafA1 (200 nM, 2 hrs) or NH4Cl (1M, 12 hrs) treated iPSn (d60). CBB, coomassie brilliant blue, (BafA1 and NH4Cl are indicated, n=7-10). 3B) Co-IP of GFP-ykt6 and bet1 in control iPSn (d60) treated with bafA1 (n=3). 3C) Ykt6 and GM130 immunofluorescence analysis of bafA1-treated H4 cells (n=9). Scale bars=10 um. 3D) Ykt6 membrane shift analysis in CBE-treated SH-SY5Y cells (50 μM, 2d, n=3). 3E) Co-IP of GFP-ykt6, bet1 and STX5 in CBE-treated SHSY5Y cells (n=5). 3F) Ykt6 membrane shift analysis in control or Gaucher disease (GD) iPSn (d100). a-Syn was knocked-out (SNCA KO) in GD lines by CRISPR/Cas9. Two exposures are included to better visualize cyt and mem ykt6 (n=4). 3G) Ykt6 membrane shift analysis in lenti-infected SH-SY5Y cells (moi3, dpi 10) (n=3). C, cytosolic; N, nuclear. 3H) GCase maturation was assessed by endo H digest in lenti-infected SH-SY5Y cells. Empty vector (vect), scrambled (scrb). 3I) Control iPSn were infected as in 3H and analyzed for GCase maturation (n=3). 3J) Live cell GCase activity in lenti-infected iPSn (n=4). 3K) Lysosomal mass measurement in control iPSn (n=4). Values are the mean+/−SEM, *p<0.05.
FIGS. 12A, 12B, 12C, 12D, 12E, and 12F. The effects of ykt6 knock-down on the lysosomal system and characterization of GD-SNCA KO iPSCs. […] 12B) Protein secretion was measured by radioactive pulse-chase from the same culture wells that correspond to proteolysis data of FIG. 2H. 12C) Control iPSn were treated with 50 mM sucrose for 7 days followed by membrane shift analysis of ykt6. 12D) Control iPSn were infected with scrambled (S) or ykt6 shRNA (KD) and treated with or without sucrose as done in panel B. LAMP1 levels were analyzed by western blot. GAPDH is a loading control (n=4). 12E) Cultures were treated as described in panel C, and analyzed for GCase maturation by western blot analysis (n=4). For all quantifications, values are the mean+/−SEM, *p<0.05. 12F) Analysis of off-target edits by CRISPR/Cas9 in SNCA knock out (KO) Gaucher disease iPSCs. The targeting strategy has been previously published (Zunke et al., 2018). Genomic sequences showing the closest homology to SNCA were analyzed for mis-matched mutations by T7 digestion, and compared to the parental GD line. PCR amplicons were analyzed by agarose gel electrophoresis stained with ethidium bromide. For all quantifications, values are the mean+/−SEM, *p<0.05. Student's T-test was used in panel 12A, while ANOVA with Tukey's post-hoc test was used in panels 12D and 12E.
Separation of lysates into cytosol and membrane fractions. […]

ykt6 SNARE complexes = experiment: Co-IP of GFP-ykt6 SNARE complexes under lysosomal stress; type: cell-based, human
Procedure: as §1, with “Empty vector (vect), scrambled (scrb).” left out, “3J) Live cell GCase activity in lenti-infected iPSn (n=4). 3K) Lysosomal mass measurement in control iPSn (n=4). Values are the mean+/−SEM, *p<0.05.” left out
To co-IP ykt6 SNARE assemblies, approximately 106-107 cells expressing GFP-tagged YKT6, were harvested in 1 ml of PBS, scraped off the plate and transferred to centrifuge tubes. […] Eluates were analyzed by western blot as described below. The samples were not analyzed in a blinded manner.

ykt6 [2] = biological target: T1, ykt6 (Homo sapiens, UniProt O15498); experiment: GFP-ykt6 / GM130 colocalization in Hela cells; type: cell-based; conditions: Hela cells stably expressing GFP-ykt6; 2 days, various concentrations
T1 construct: expressed in transfected cells
T1 sequence (O15498 1-198): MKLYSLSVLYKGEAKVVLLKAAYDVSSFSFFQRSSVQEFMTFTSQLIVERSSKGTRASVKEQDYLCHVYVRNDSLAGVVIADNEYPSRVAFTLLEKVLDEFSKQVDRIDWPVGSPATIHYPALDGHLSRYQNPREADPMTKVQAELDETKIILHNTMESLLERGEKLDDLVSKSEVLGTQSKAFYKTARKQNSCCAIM
Procedure: FIG. 19. […] A) Hela cells stably expressing GFP-ykt6 (green) were treated with #20 for 2 days at various concentrations, fixed, stained with Golgi marker GM130 (red), and colocalization was quantified by Pearson's correlation. Each plot represents an individual cell, from 3 culture wells. LNK-754 was used at 10 nM. B) Stable transfected Hela cells were incubated as in A followed by biochemical fractionation/western blot to detect cytosolic (cyt) or membrane (mem) ykt6. The assay was repeated 3 times, representative blot shown.
We tested the activity of Compound #20 ((3R)-1-[(1-{[1-(4,5-dimethylthiophene-2-carbonyl)piperidin-4-yl]methyl}-1H-1,2,3-triazol-4-yl)methyl]pyrrolidin-3-amine) regarding activation of ykt6 in Hela cells. (See FIG. 19). Hela cells stably expressing GFP-ykt6 were treated with Compound #20 for 2 days at various concentrations, fixed, stained with Golgi marker GM130, and colocalization was quantified by Pearson's correlation.

[3] = biological target: T2, ykt6 SNARE binding (STX5) (Homo sapiens, UniProt O15498); experiment: Co-IP of GFP-ykt6 and STX5 in Hela cells; type: cell-based; conditions: Hela cells stably expressing GFP-ykt6; 2 days
T2 construct: expressed in transfected cells
T2 sequence (O15498 1-195 limits assumed): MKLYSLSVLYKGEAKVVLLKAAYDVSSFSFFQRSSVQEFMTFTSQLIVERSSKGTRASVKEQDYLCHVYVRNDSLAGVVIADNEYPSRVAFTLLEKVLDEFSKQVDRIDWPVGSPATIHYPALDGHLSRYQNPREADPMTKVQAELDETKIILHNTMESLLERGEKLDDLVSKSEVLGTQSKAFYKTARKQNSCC

`CO/C1=C\C(C)=C\[C@@H](C)[C@@H](O)[C@@H](C)C/C(C)=C/C=C/[C@H](OC)[C@@H]([C@@H](C)[C@@H](O)[C@H](C)[C@@]2(O)C[C@@H](O)[C@H](C)[C@@H](C(C)C)O2)OC1=O` [bafilomycin A1] was tested, and the ykt6 cytosol/membrane distribution (ykt6 [1]; healthy control iPSn (d60), 200 nM, 2 hrs) was “caused a shift of ykt6 from the cytosol into membrane fractions” and the “assembly of ykt6 ER-Golgi SNARE complexes (co-IP GFP-ykt6 and bet1)” value (ykt6 SNARE complexes; control iPSn (d60)) was “promoted the assembly of ykt6 ER-Golgi SNARE complexes”.

With `OC[C@H]1O[C@@](CO)(O[C@H]2O[C@H](CO)[C@@H](O)[C@H](O)[C@H]2O)[C@@H](O)[C@@H]1O` [sucrose] the ykt6 cytosol/membrane distribution (ykt6 [1]; control iPSn, 50 mM, 7 days) was “caused ykt6 to shift into membranes”.

For `Cc1cc(C(=O)N2CCC(Cn3cc(CN4CC[C@@H](N)C4)nn3)CC2)sc1C` [Compound #20, (3R)-1-[(1-{[1-(4,5-dimethylthiophene-2-carbonyl)piperidin-4-yl]methyl}-1H-1,2,3-triazol-4-yl)methyl]pyrrolidin-3-amine], the “ykt6 activity (GFP-ykt6 colocalization with GM130, Pearson's correlation)” value (ykt6 [2]) was “can activate ykt6; also recorded: increases ykt6 activity” and the “SNARE binding (STX5 co-IP)” value [3] was “increases SNARE binding”.

In the case of `O[C@H]1[C@H](O)[C@@H](O)[C@@H]2O[C@@H]2[C@@H]1O` [CBE], the ykt6 cytosol/membrane distribution (ykt6 [1]; SH-SY5Y cells, 50 μM, 2d) was “caused ykt6 to shift into membranes” and the “ykt6 SNARE complexes (co-IP GFP-ykt6, bet1 and STX5)” value (ykt6 SNARE complexes; SHSY5Y cells) was “increased ykt6 SNARE complexes”.

For `Cl.N` [NH4Cl], the ykt6 cytosol/membrane distribution (ykt6 [1]; healthy control iPSn (d60), 1M, 12 hrs) was “caused a shift of ykt6 from the cytosol into membrane fractions”.
